Measured values published in PMC9133015 (Nature Communications, 2022).
Several values for one entry are separate records, joined by “and”; a condition that tells them apart may be missing. Identical values can stand only once.

Key:
Assay type in all cases: cell-based, human
[1] = system: DU145 cells; assay: Invasion assay (transwell); conditions: for Cell invasion (cell number): replicates
[2] = system: PC-3 cells; assay: Invasion assay (transwell); conditions: for Cell invasion (cell number): PC-3, replicates
[3] = system: 22Rv1 cells; assay: Invasion assay (transwell); conditions: for Cell invasion (cell number): replicates
[4] = system: 22Rv1 cells; assay: Apoptosis assay (Annexin V-APC/PI flow cytometry); conditions: for Apoptosis (%): replicates
[5] = system: DU145 cells; assay: Apoptosis assay (Annexin V-APC/PI flow cytometry); conditions: for Apoptosis (%): replicates
[6] = system: PC-3 cells; assay: Apoptosis assay (Annexin V-APC/PI flow cytometry); conditions: for Apoptosis (%): PC-3, replicates
[7] = system: 22Rv1 cells; assay: Cell cycle assay (PI flow cytometry); conditions: for Cell cycle percentages ( % ) G0/G1 / Cell cycle percentages ( % ) G2/M / Cell cycle percentages ( % ) S: replicates
[8] = system: DU145 cells; assay: Cell cycle assay (PI flow cytometry); conditions: replicates
[9] = 22Rv1 cells, concentration-dependent

**Q.** What does the source list for `CCN1CCN(C(=O)c2ccc(Nc3ncc(F)c(-c4ccc5nc(N(C)C)sc5c4)n3)nc2)CC1` [YK-2-69]?
**A.** Cell invasion (cell number) ([1]; DU145, 2 μM): 340 cell number and 358 cell number and 328 cell number; Cell invasion (cell number) ([1]; DU145, 4 μM): 258 cell number and 240 cell number and 252 cell number; Cell invasion (cell number) ([1]; DU145, 8 μM): 87 cell number and 91 cell number and 82 cell number; invasion (in words) ([1]; DU145 cells, dose-dependent): remarkably inhibited the migration and invasion; Cell invasion (cell number) ([2]; 1 µM): 2987 cell number and 3005 cell number and 2946 cell number; Cell invasion (cell number) ([2]; 2 µM): 2589 cell number and 2699 cell number and 2710 cell number; Cell invasion (cell number) ([2]; 4 µM): 489 cell number and 503 cell number and 468 cell number; invasion (in words) ([2]; PC-3 cells, dose-dependent): remarkably inhibited the migration and invasion; Cell invasion (cell number) ([3]; 22Rv1, 0.5 μM): 990 cell number and 970 cell number and 1020 cell number; Cell invasion (cell number) ([3]; 22Rv1, 1 μM): 730 cell number and 680 cell number and 710 cell number; Cell invasion (cell number) ([3]; 22Rv1, 2 μM): 520 cell number and 490 cell number and 509 cell number; invasion (in words) ([3]; 22Rv1 cells, dose-dependent): remarkably inhibited the migration and invasion; Apoptosis (%) ([4]; 22Rv1, 0.5 μM): 10.56% and 11.41% and 12.03%; Apoptosis (%) ([4]; 22Rv1, 1 μM): 18.52% and 20.96% and 19.24%; Apoptosis (%) ([4]; 22Rv1, 2 μM): 26.56% and 24.71% and 24.31%; apoptosis (in words) [4, 9]: significant increase of the apoptotic cell population; Apoptosis (%) ([5]; DU145, 2 μM): 9.32% and 10.11% and 8.62%; Apoptosis (%) ([5]; DU145, 4 μM): 11.15% and 12.55% and 13.62%; Apoptosis (%) ([5]; DU145, 8 μM): 26.62% and 31.08% and 30.25%; apoptosis (in words) ([5]; DU145 cells, concentration-dependent): significant increase of the apoptotic cell population; Apoptosis (%) ([6]; 0.5 µM): 5.98% and 6.29% and 6.68%; Apoptosis (%) ([6]; 1 µM): 7.85% and 8.04% and 8.54%; Apoptosis (%) ([6]; 2 µM): 12.28% and 13.62% and 14.23%; apoptosis (in words) ([6]; PC-3 cells, concentration-dependent): significant increase of the apoptotic cell population; Cell cycle percentages ( % ) G0/G1 ([7]; 22Rv1, 0.5 μM): 58.59% and 61.06% and 63.23%; Cell cycle percentages ( % ) G2/M ([7]; 22Rv1, 0.5 μM): 21.63% and 20.2% and 19.61%; Cell cycle percentages ( % ) S ([7]; 22Rv1, 0.5 μM): 19.78% and 18.74% and 17.16%; Cell cycle percentages ( % ) G0/G1 ([7]; 22Rv1, 1 μM): 66.26% and 67.95% and 69.26%; Cell cycle percentages ( % ) G2/M ([7]; 22Rv1, 1 μM): 16.83% and 16.42% and 15%; Cell cycle percentages ( % ) S ([7]; 22Rv1, 1 μM): 16.91% and 15.43% and 15.74%; Cell cycle percentages ( % ) G0/G1 ([7]; 22Rv1, 2 μM): 71.88% and 73.05% and 74.35%; Cell cycle percentages ( % ) G2/M ([7]; 22Rv1, 2 μM): 13.63% and 11.7% and 11.68%; Cell cycle percentages ( % ) S ([7]; 22Rv1, 2 μM): 14.49% and 15.25% and 13.97%; cell cycle (in words) [7, 9]: arrested cell cycle at the G0/G1 phase; Cell cycle percentages ( % ) G0/G1 ([8]; DU145, 2 μM): 55.97% and 56.66% and 57.2%; Cell cycle percentages ( % ) G2/M ([8]; DU145, 2 μM): 25.7% and 23.86% and 21.92%; Cell cycle percentages ( % ) S ([8]; DU145, 2 μM): 18.33% and 19.48% and 20.88%; Cell cycle percentages ( % ) G0/G1 ([8]; DU145, 4 μM): 57.12% and 58.35% and 59.96%; Cell cycle percentages ( % ) G2/M ([8]; DU145, 4 μM): 23.02% and 22.58% and 21.06%; Cell cycle percentages ( % ) S ([8]; DU145, 4 μM): 19.86% and 19.07% and 18.98%
